Test results taken from US12325744B2, “Methods for reducing post-operative cognitive dysfunction (POCD)” (The Kennedy Trust for Rheumatology Research, priority 2010, dated 2025).
Entries after “also recorded” stand apart in the source; their conditions may differ.

Assays:
C57-BL6 mice [1] = assay: Fear conditioning, freezing to context after tibial surgery; assay type: in vivo; conditions: wild type mice, surgery 30 min after training, tested three days later
Method: (§1) Fear conditioning tests. Mice were conditioned 30 minutes or 3 days prior to intervention by training with two cycles of tone and foot-shock pairings. In delay fear conditioning a foot-shock was administered during the last 2 seconds of each 20 seconds-lasting tone.
(§2) In trace fear conditioning, the foot-shock onset, lasting 2 seconds as in the previous paradigm, followed a 20-second gap after each tone termination. Three days after conditioning, mice were placed back in the original conditioning chamber for 270 seconds, where no tone or shock were presented, to assess recall of contextual fear memory. After 3 h mice were placed in a novel environment (different context from training) to test for auditory-cued memory. Following an initial baseline period of 135 seconds during which freezing was scored in absence of noise, the auditory cue was presented for the final 135 seconds of the test, and freezing was again recorded. (For further details please refer to supplemental methods).
(§3) The behavioral study was conducted using a conditioning chamber (Med. Associates Inc., St. Albans, VT, USA). The back- and the side-walls of the chamber were made of aluminium, whereas the front door and the ceiling were of transparent Plexiglas. The floor of the chamber consisted of 36 stainless steel rods (1 mm diameter) spaced 0.5 cm apart (center-to-center). […]

IL-6 = assay: Plasma IL-6 by ELISA after LPS injection; assay type: in vivo, mice; conditions: LPS 1 mg/kg i.p., IL-1Ra 100 mg/kg s.c. immediately before LPS
Method: (§4) Treatment. LPS derived from Escherichia Coli endotoxin ([…], InvivoGen, USA, 1 mg/kg) was dissolved in normal saline and injected intraperitoneally. IL-1Ra (Amgen, Anakinra 100 mg/kg, Nederlands) was given subcutaneously immediately before LPS administration. Dose response curve from LPS or IL-1Ra was obtained from our pilot studies to provoke or to suppress moderate degree of microglia activation respectively. Control animals were injected with equivalent volumes (0.1 ml) of saline. Mice from each treatment group were randomly assigned for assessment of either cytokine response or cognitive behavior, in order to obviate possible confounding effects of behavioral testing on inflammatory markers.
(§5) Plasma cytokine measurement. Blood was sampled transcardially after thoracotomy under terminal anesthesia 30 minutes, 2, 6, 12 hours and 1, 3, 7 days after experiments in the different cohorts and centrifuged at 3,600 rpm for 7 minutes at 4° C. Blood samples taken from animals without any interventions severed as controls. Plasma samples were stored at −20° C. for further analysis. Plasma cytokine and HMGB-1 were measured using commercially available ELISA kits from Biosource, CA and Shino-test Corporation, Japan, respectively. The sensitivities of the assays were <3 pg/ml for TNFα, <7 pg/ml for IL-1β, <3 pg/ml for IL-6 and 1 ng/ml for HMGB-1.

C57-BL6 mice [2] = assay: Delay fear conditioning, auditory-cued test after tibial surgery; assay type: in vivo; conditions: wild type mice, surgery with IL-1Ra pre-treatment
Method: as §1, §2, §3

IL-1β [3] = assay: Hippocampal IL-1β by ELISA after tibial surgery; assay type: in vivo; conditions: wild type mice, 6 h (minocycline, enrofloxacin) or 24 h (IL-1Ra) after surgery
Method: IL-6, TNF-α and IL-1β were measured by ELISA^19 (Biosource, CA; Bender Medsystem, CA, respectively). Hippocampal IL-1β was measured by ELISA (Bender Medsystem, CA), as previously described^20. To confirm reliability of dilution linearity and spike recovery cytokine measurement were also performed in mice in which inflammation was induced with i.p. LPS (0111:B4, Invivogen, CA). (For further details please refer to supplemental methods).
Under terminal anesthesia with pentobarbital, each mouse was euthanized and the brain quickly removed following decapitation. The hippocampus was dissected under microscopy on a frosted glass plate placed on top of crushed ice, then snap frozen and stored at −80° C. until processing. Each hippocampus was added to Iscove's culture medium containing 5% fetal calf serum (FCS) and a cocktail of enzyme inhibitors (in mM: 100 amino-n-caproic acid, 10 EDTA, 5 benzamidine-HCl, and 0.2 phenylmethylsulfonyl fluoride). […] IL-1β was measured in the supernatant from hippocampal extracts, which were appropriately diluted prior to measurement to fall on the linear portion of the sigmoid curve, using a commercially available ELISA kit (Bender Medsystem, CA). […]
Cytokine analyses: Systemic and hippocampal IL-1β was measured by ELISA (Bender Medsystem, CA; 1.2 pg/ml of sensitivity), as previously described (12).

IL-1β [4] = assay: Plasma IL-1β by ELISA after LPS injection; assay type: in vivo, mice; conditions: LPS 1 mg/kg i.p., IL-1Ra 100 mg/kg s.c. immediately before LPS
Method: as §4, §5

Substance: IL-1Ra: IL-1 receptor antagonist (Amgen, Anakinra)
- Freezing to context (delay fear conditioning) after surgery, effect of treatment (C57-BL6 mice [1]): prevented the decrement in postoperative freezing behavior; also recorded: significantly reduced the surgery-induced decrement in freezing behavior
- Plasma IL-6 at 6 hours after LPS with IL-1Ra (IL-6; 6 hours): 91.02 ± 15.17 pg/mL
- Plasma IL-6 at 24 hours after LPS with IL-1Ra (IL-6; 24 hours): 14.05 ± 2.34 pg/mL
- Freezing in the auditory-cued test after delay fear conditioning (C57-BL6 mice [2]): showed no difference; also recorded: There was no difference between the groups
- Hippocampal IL-1β expression after surgery, effect of treatment (IL-1β [3]): did not increase hippocampal microgliosis (FIG. 6, A-B-C) or expression of IL-1β; also recorded: Hippocampal IL-1β did not significantly increase
- Plasma IL-1β at 6 hours after LPS with IL-1Ra (IL-1β [4]; 6 hours): 32.7 ± 5.45 pg/mL
- Plasma IL-1β at 24 hours after LPS with IL-1Ra (IL-1β [4]; 24 hours): 6.2 ± 1.03 pg/mL
